Assay results reported in ChEMBL document CHEMBL1201861, “Genomics of Drug Sensitity in Cancer screening data, Wellcome Trust Sanger Institute”.
pIC50: −log10 of the molar value.

Assays:
COR-L279 = assay: SANGER: Inhibition of human COR-L279 cell growth in a cell viability assay.; assay type: functional, cell-based; details: Homo sapiens, COR-L279
HCC1599 = assay: cells; assay type: functional, cell-based, Homo sapiens; details: Homo sapiens, HCC1599;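 further: growth inhibition of HCC1599 cells, read out in a cell viability assay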
Description: SANGER: Inhibition of human HCC1599 cell growth in a cell viability assay.

JIYOYE = assay: cells; assay type: functional, cell-based, Homo sapiens; details: Homo sapiens, JIYOYE
Description: SANGER: Inhibition of human JiyoyeP-2003 cell growth in a cell viability assay.

MONO-MAC-6 = assay: cells; assay type: functional, cell-based, Homo sapiens; details: Homo sapiens, MONO-MAC-6;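 further: cell viability assay measuring growth inhibition of human MONO-MAC-6 cells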
Description: SANGER: Inhibition of human MONO-MAC-6 cell growth in a cell viability assay.

NCI-H1436 = assay: cells; assay type: functional, cell-based, Homo sapiens; details: Homo sapiens, NCI-H1436;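 further: growth suppression of human NCI-H1436 cells, determined with a cell viability readout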
Description: SANGER: Inhibition of human NCI-H1436 cell growth in a cell viability assay.

OPM-2 = assay: cells; assay type: functional, cell-based, Homo sapiens; details: Homo sapiens, OPM-2;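 further: growth of OPM-2 cells measured with a viability assay, IC50 for suppression of proliferation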
Description: SANGER: Inhibition of human OPM-2 cell growth in a cell viability assay.

Raji = assay: cells; assay type: functional, cell-based, Homo sapiens; details: Homo sapiens, Raji;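 further: cell viability assay measuring inhibition of Raji cell growth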
Description: SANGER: Inhibition of human Raji cell growth in a cell viability assay.

SCC-3 = assay: cells; assay type: functional, cell-based, Homo sapiens; details: Homo sapiens, SCC-3;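 further: cell viability assay measuring inhibition of SCC-3 cell growth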
Description: SANGER: Inhibition of human SCC-3 cell growth in a cell viability assay.

SU-DHL-1 = assay: SANGER: Inhibition of human SU-DHL-1 cell growth in a cell viability assay.; assay type: functional, cell-based; details: Homo sapiens, SU-DHL-1
THP-1 = assay: cells; assay type: functional, cell-based, Homo sapiens; details: Homo sapiens, THP-1;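 further: growth inhibition of THP-1 cells, read out via a cell viability assay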
Description: SANGER: Inhibition of human THP-1 cell growth in a cell viability assay.

WSU-NHL = assay: cells; assay type: functional, cell-based, Homo sapiens; details: Homo sapiens, WSU-NHL;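 further: growth inhibition of human WSU-NHL cells, read out with a cell viability assay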
Description: SANGER: Inhibition of human WSU-NHL cell growth in a cell viability assay.

CESS = assay: SANGER: Inhibition of human CESS cell growth in a cell viability assay.; assay type: functional, cell-based; details: Homo sapiens, CESS
D-542MG = assay: cells; assay type: functional, cell-based, Homo sapiens; details: Homo sapiens, D-542MG
Description: SANGER: Inhibition of human D-542MG cell growth in a cell viability assay.

SMILES	pIC50 (COR-L279)	pIC50 (HCC1599)	pIC50 (JIYOYE)	pIC50 (MONO-MAC-6)	pIC50 (NCI-H1436)	pIC50 (OPM-2)	pIC50 (Raji)	pIC50 (SCC-3)	pIC50 (SU-DHL-1)	pIC50 (THP-1)	pIC50 (WSU-NHL)	pIC50 (CESS)	pIC50 (D-542MG)
OCCCNc1cc(-c2ccnc(Nc3cccc(Cl)c3)n2)ccn1	6.77	7.36	7.49	7.07	6.60	6.82	7.38	7.42	6.68	< 6.59	< 6.59	7.40	
N[C@@H](CSC(c1ccccc1)(c1ccccc1)c1ccccc1)C(=O)O [S-TRITYL-L-CYSTEINE]	5.54	5.91	5.77	5.94	6.05	5.48	5.44	5.90	< 5.29	< 5.29	< 5.29	6.22	
COc1cc(-c2nn([C@H]3CC[C@H](N4CCN(C(C)=O)CC4)CC3)c3ncnc(N)c23)ccc1NC(=O)c1cc2ccccc2n1C	< 5.29	< 5.29	5.38	< 5.29	5.50	< 5.29	< 5.29	< 5.29	< 5.29	< 5.29	< 5.29	< 5.29	
COc1cc(N2CCN(C)CC2)ccc1Nc1ncc2c(n1)N(C)c1ccccc1C(=O)N2C	5.10	< 5.10	5.16	< 5.10	< 5.10	5.48	< 5.10	< 5.10	< 5.10	< 5.10	< 5.10	5.11	5.70
C#Cc1cccc(Nc2ncnc3cc(OCCOC)c(OCCOC)cc23)c1 [ERLOTINIB]		< 5.70	< 5.70	< 5.70		< 5.70	< 5.70	< 5.70	< 5.70	< 5.70	< 5.70	< 5.70	< 5.70
COc1cc2ncn(-c3cc(OCc4ccccc4C(F)(F)F)c(C(N)=O)s3)c2cc1OC [GW843682X]	7.00	7.73	6.83	7.46	< 6.59	7.35	< 6.59	7.31	7.03	< 6.59	< 6.59	7.88	
